Reference: US12692262B2, “Substituted ureas as orexin receptor agonists” (Merck Sharp & Dohme LLC, priority 2020, dated 2026)

Biological target: T1, human OX2R (Homo sapiens, UniProt O43614)
T1 construct: expressed in transfected cells; host or cells: CHO (Chinese hamster ovary) cells grown under G418 selection
T1 sequence (O43614 1-444): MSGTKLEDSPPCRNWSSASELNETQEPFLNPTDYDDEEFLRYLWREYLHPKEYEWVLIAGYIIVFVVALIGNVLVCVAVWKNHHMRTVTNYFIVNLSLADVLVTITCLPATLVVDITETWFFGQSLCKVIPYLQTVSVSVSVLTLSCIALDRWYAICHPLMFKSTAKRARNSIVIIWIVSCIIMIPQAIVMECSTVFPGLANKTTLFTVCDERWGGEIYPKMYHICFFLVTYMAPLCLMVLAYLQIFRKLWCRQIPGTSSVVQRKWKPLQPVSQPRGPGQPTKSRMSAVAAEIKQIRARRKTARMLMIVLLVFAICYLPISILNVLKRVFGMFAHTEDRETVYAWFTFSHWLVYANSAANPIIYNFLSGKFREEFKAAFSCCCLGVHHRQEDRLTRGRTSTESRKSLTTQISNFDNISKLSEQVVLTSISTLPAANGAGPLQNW
Assay: IPOne (IP-1 accumulation) assay in CHO cells expressing human OX2R
Type: cell-based
Settings: for EC50: CHO cells expressing human OX2R, IP-One assay, 2 h incubation, four parameter logistic fit, read-out: OX2R Potency, EC50; for % of maximum agonist effect (relative to Orexin A): percent effect vs mean max effect of a reference compound at 1 uM (100% activity vs Orexin A), human OX2R
Outline: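 CHO cells stably expressing human OX2R, grown in Iscove's modified DMEM with 10% FBS; agonist-driven IP-1 accumulation via the Gαq pathway measured by HTRF (D2/AB-cryptate detection after lysis). EC50 taken as the inflection point of a four-parameter logistic fit.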

Compound	EC50 [nM]	% of maximum agonist effect (relative to Orexin A) [%]
C=CC[C@H](NC(=O)N(CC)C(c1cc(-c2cn3ccnc3c(OC)n2)c(OC)cn1)C(F)(F)F)C(F)(F)F (mixture of isomers) [Example 5-1, 1-ethyl-1-(2,2,2-trifluoro-1-(5-methoxy-4-(8-methoxyimidazo[1,2-a]pyrazin-6-yl)pyridin-2-yl)ethyl)-3-((S)-1,1,1-trifluoropent-4-en-2-yl)urea]	4.8	100.4
CC[C@H](CCC(F)(F)F)NC(=O)N(CC)[C@H](C)c1cc(-c2ccc3nccn3c2)c(OC)cc1F [Example 11-2, 1-ethyl-1-((R)-1-(2-fluoro-5-(imidazo[1,2-a]pyridin-6-yl)-4-methoxyphenyl)ethyl)-3-((R)-6,6,6-trifluorohexan-3-yl)urea]	80.5	98.5
CCN(C(=O)N[C@@H](CCC(F)(F)F)C(F)(F)F)[C@@H](c1cc(-c2cc(F)c3ncnn3c2)c(OC)cn1)C(F)(F)F [Example 9-10, 1-ethyl-3-((S)-1,1,1,5,5,5-hexafluoropentan-2-yl)-1-((S)-2,2,2-trifluoro-1-(4-(8-fluoro-[1,2,4]triazolo[1,5-a]pyridin-6-yl)-5-methoxypyridin-2-yl)ethyl)urea]	608	97.1
CCN(C(=O)N[C@@H](CCC(F)(F)F)C(F)(F)F)[C@H](C)c1cccc(-c2ccc3ncc(N)n3c2)c1 [Example 8-12, 1-((R)-1-(3-(3-aminoimidazo[1,2-a]pyridin-6-yl)phenyl)ethyl)-1-ethyl-3-((S)-1,1,1,5,5,5-hexafluoropentan-2-yl)urea]	17.4	96.7
CCN(C(=O)N[C@H](C)c1cccc(F)c1)[C@H](C)c1cccc(-c2cn3ccnc3c(OC)n2)c1 [Example 1-2, 1-ethyl-3-((R)-1-(3-fluorophenyl)ethyl)-1-((R)-1-(3-(8-methoxyimidazo[1,2-a]pyrazin-6-yl)phenyl)ethyl)urea]	5.2	98.3
CCN(C(=O)N[C@@H](CCC(F)(F)F)C(F)(F)F)C(c1ccc(OC)c(-c2cn3ccnc3c(OC)n2)n1)C(F)(F)F (stereo partly drawn) [Example 10-20, 1-ethyl-3-((S)-1,1,1,5,5,5-hexafluoropentan-2-yl)-1-(2,2,2-trifluoro-1-(5-methoxy-6-(8-methoxyimidazo[1,2-a]pyrazin-6-yl)pyridin-2-yl)ethyl)urea]	0.7	101.0
CCN(C(=O)N[C@@H](CCC(F)(F)F)C(F)(F)F)C(c1cc(-c2cn3cc(C)nc3c(OC)n2)c(OC)cn1)C1CC1 (stereo partly drawn) [Example 2-16, 1-(cyclopropyl(5-methoxy-4-(8-methoxy-2-methylimidazo[1,2-a]pyrazin-6-yl)pyridin-2-yl)methyl)-1-ethyl-3-((S)-1,1,1,5,5,5-hexafluoropentan-2-yl)urea]	54.5	101.1
C#CC(NC(=O)N(CC)[C@@H](c1cc(-c2cn3ccnc3c(OC)n2)c(OC)cn1)C(F)(F)F)C(F)(F)F (stereo partly drawn) [Example 5-3, 1-ethyl-1-((S)-2,2,2-trifluoro-1-(5-methoxy-4-(8-methoxyimidazo[1,2-a]pyrazin-6-yl)pyridin-2-yl)ethyl)-3-(1,1,1-trifluorobut-3-yn-2-yl)urea]	37.4	100.5
CCN(C(=O)N[C@@H](CCC(F)(F)F)C(F)(F)F)C(C)c1cc(-c2cc(F)c3nccn3c2)c(OC)cn1 (stereo partly drawn) [Example 15-2, 1-ethyl-1-(1-(4-(8-fluoroimidazo[1,2-a]pyridin-6-yl)-5-methoxypyridin-2-yl)ethyl)-3-((S)-1,1,1,5,5,5-hexafluoropentan-2-yl)urea]	1	99.1
CCN(C(=O)NC(Cn1nccn1)C(F)(F)F)[C@H](C)c1cccc(-c2cn3ccnc3c(OC)n2)c1 (stereo partly drawn) [Example 1-16, 1-ethyl-1-((R)-1-(3-(8-methoxyimidazo[1,2-a]pyrazin-6-yl)phenyl)ethyl)-3-(1,1,1-trifluoro-3-(2H-1,2,3-triazol-2-yl)propan-2-yl)urea]	2.8	100.1
CCN(C(=O)NC(C#N)c1cccc(C(F)(F)F)c1)[C@H](C)c1cccc(-c2cn3ccnc3c(OC)n2)c1 (stereo partly drawn) [Example 1-12, 3-(cyano(3-(trifluoromethyl)phenyl)methyl)-1-ethyl-1-((R)-1-(3-(8-methoxyimidazo[1,2-a]pyrazin-6-yl)phenyl)ethyl)urea]	19.8	99.1
CCN(C(=O)N[C@@H](CCC(F)(F)F)C(F)(F)F)C(c1cc(-c2cc(OC)c3ncccc3c2)c(OC)cn1)C(F)(F)F (stereo partly drawn) [Example 10-11, 1-ethyl-3-((S)-1,1,1,5,5,5-hexafluoropentan-2-yl)-1-(2,2,2-trifluoro-1-(5-methoxy-4-(8-methoxyquinolin-6-yl)pyridin-2-yl)ethyl)urea]	7.3	101.3
CCN(C(=O)NC(C1CN(C)C1)C(F)(F)F)[C@H](C)c1cccc(-c2cn3ccnc3c(OC)n2)c1 (stereo partly drawn) [Example 1-15, 1-ethyl-1-((R)-1-(3-(8-methoxyimidazo[1,2-a]pyrazin-6-yl)phenyl)ethyl)-3-(2,2,2-trifluoro-1-(1-methylazetidin-3-yl)ethyl)urea]	271	99.7
CCN(C(=O)NC(C1CC(F)(F)CC(C)(C)O1)C(F)(F)F)[C@@H](c1cc(-c2cn3cc(C)nc3c(OC)n2)c(OC)cn1)C(F)(F)F (stereo partly drawn) [Example 2-4, 3-(1-(4,4-difluoro-6,6-dimethyltetrahydro-2H-pyran-2-yl)-2,2,2-trifluoroethyl)-1-ethyl-1-((S)-2,2,2-trifluoro-1-(5-methoxy-4-(8-methoxy-2-methylimidazo[1,2-a]pyrazin-6-yl)pyridin-2-yl)ethyl)urea]	4.3	100.6
CCOc1cc(-c2cccc([C@@H](C)N(CC)C(=O)N[C@H](CC)CCC(F)(F)F)c2)cn2ccnc12 [Example 8-2, 1-((R)-1-(3-(8-ethoxyimidazo[1,2-a]pyridin-6-yl)phenyl)ethyl)-1-ethyl-3-((R)-6,6,6-trifluorohexan-3-yl)urea]	6.5	97.7
CCN(C(=O)N[C@@H](CCC(F)(F)F)C(F)(F)F)[C@H](C)c1cnc(O)c(-c2cc(OC)n3nccc3c2)c1 [Example 30, 1-ethyl-3-((S)-1,1,1,5,5,5-hexafluoropentan-2-yl)-1-((R)-1-(6-hydroxy-5-(7-methoxypyrazolo[1,5-a]pyridin-5-yl)pyridin-3-yl)ethyl)urea]	4730	97.0
CCC(NC(=O)N(CC)[C@@H](c1cc(-c2cn3ccnc3c(OC)n2)c(OC)cn1)C(F)(F)F)C(F)F (stereo partly drawn) [Example 2-10, 3-(1,1-difluorobutan-2-yl)-1-ethyl-1-((S)-2,2,2-trifluoro-1-(5-methoxy-4-(8-methoxyimidazo[1,2-a]pyrazin-6-yl)pyridin-2-yl)ethyl)urea]	22.5	98.5
CCC(NC(=O)N(CC)[C@@H](c1cc(-c2cn3cc(C)nc3c(OC)n2)c(OC)cn1)C(F)(F)F)C1CC1C(F)(F)F (stereo partly drawn) [Example 6-6, 1-ethyl-1-((S)-2,2,2-trifluoro-1-(5-methoxy-4-(8-methoxy-2-methylimidazo[1,2-a]pyrazin-6-yl)pyridin-2-yl)ethyl)-3-(1-(2-(trifluoromethyl)cyclopropyl)propyl)urea]	71.4	101.5
